What was measured:
[1] = system: CT-DNA; experiment: Competitive ethidium bromide displacement; assay type: binding, calf; conditions: for Kapp (apparent binding constant): Kapp = Ke x 1.26/C50 where Ke = 9.5 x 10^6 M(bp)^-1; for Kapp (apparent binding constant) / IC50: 1.2 µM EtBr, 1 µM CT-DNAp, pH 7.0; for IC50: final volume 2 mL, 10 mM TES, 0.1 mM Na2EDTA, read-out: C50 = concentration required to reduce fluorescence by 50%
Method: Competitive Ethidium Displacement. […] Complexes 4-6, actinomycin D, pentamidine isethionate were prepared at 2.0 mM in DMSO. Two millilitres of DNA-Et solution were placed in a 10-mm quartz cuvet (3 mL) and positioned in a temperature controlled (20°C) spectrofluorometer (Perkin Elmer LS55B Luminescence Spectrometer). Excitation and emission wavelengths were set to 546 and 595 nm, respectively. After thermal equilibrium was established the emission and excitation slits were modified to give a fluorescence reading of 50 arbitrary units with measurements being recorded over a 20-s interval. An aliquot of complex or drug solution was taken (0.5 - 10 µL), was added to the cuvette and after equilibration the fluorescence reading was recorded. Repeated aliquots were added until the fluorescence was 20-40% of the initial control. Triplicate titrations were preformed and the apparent binding constants were calculated using Kapp = Ke x 1.26/C50 where Ke = 9.5 x 10^6 M(bp)^-1.

[2] = system: HT29; experiment: MTT cytotoxicity assay, complex 7; assay type: cell-based, Human; conditions: HT29 colon cancer line, 24 hr
Method: (§1) For cytotoxicity evaluation HT29, SW480 and SW620 cell lines were employed; all the cell lines were grown in RPMI 1640 media (Fischer). All media were supplemented with 10% foetal bovine serum (FBS) and 45 IU/ml penicillin and 45 µg/ml streptomycin and cells were maintained at 37 °C in a 5% CO2 humidified incubator.
(§2) For sterilisation samples were filtered with a 0.2 micron cellulose acetate filter. For cytotoxicological evaluation all samples were prepared fresh on the day of exposure. A stock concentration of test compound was prepared in the exposure media (10% DMEM F-12) necessary for the cell line under test. This sample was vortexed to ensure a uniform dispersion of the compound under test.
For cytotoxicity assays cells were seeded in 96-well microplates (Nunc, Denmark) at a density of 1 x 10^5 cells/ml for the 24 hr test, 5 x10^4 cells/ml for the 48 hr test and 3 x 10^4 cells/ml for the 96 hr test. […] After 24 h of cell attachment, plates were washed with 100 µl/well phosphate buffered saline (PBS) and the cells were treated with increasing concentrations of each compound for 24 h. […] The plate was shaken at 240 rpm for 10 min and the absorbance was measured at 570 nm.
At least three independent experiments were conducted in triplicate for each cell line and toxicity endpoint. […] Differences between samples and the control were evaluated using the statistical analysis package SPSS 14.0. […]

[3] = system: CT-DNA; experiment: DNA-ethidium fluorescence quenching; assay type: binding, calf; conditions: Q = equivalent concentration required to reduce fluorescence by 50%; 2.0 µM EtBr, 20 µM DNAp, 2 mM NaOAc buffer, 9.3 mM NaCl, pH 5.0
Method: (§3) DNA-Ethidium Fluorescence Quenching. Working solutions containing 20 µM poly[d(AT)]2 (ε260 = 13,100 M(bp)^-1 cm^-1), poly[d(G-C)]2 (ε260 = 16,800 M(bp)^-1 cm^-1) and CT-DNAp (ε260 = 12,824 M(bp)^-1 cm^-1) along with 2.0 µM Et in NaOAc buffer (2 mM NaOAc, 9.3 mM NaCl, 0.1 mM Na2EDTA, pH = 5.0) were prepared. Subsequent experimental steps are identical to the displacement experiment with the exception that a fluorescence reading of 200 arbitrary units with measurements being recorded over a 20-s interval was used. From a plot of the fluorescence vs added drug concentration, the Q values is given by the concentration required to effect 50% removal of the initial fluorescence.

[4] = system: SW480; experiment: MTT cytotoxicity assay, complex 7; assay type: cell-based; conditions: SW480 (Dukes' B) colon cancer line, 24 hr
Method: as §1, §2
(§4) For cytotoxicity assays cells were seeded in 96-well microplates (Nunc, Denmark) at a density of 1 x 10^5 cells/ml for the 24 hr test, 5 x10^4 cells/ml for the 48 hr test and 3 x 10^4 cells/ml for the 96 hr test. […] After 24 h of cell attachment, plates were washed with 100 µl/well phosphate buffered saline (PBS) and the cells were treated with increasing concentrations of each compound for 24 h. Six replicate wells were used for each control and test concentration per microplate. Following the desired time of compound exposure, control medium or test exposures were removed, the cells were rinsed with PBS and 100 µl of fresh medium (without FBS or supplements) was added to each well. 10 µl of MTT (5 mg/ml) prepared in PBS was then added to each well and the plates were incubated for 3 h at 37°C in a 5% CO2 humidified incubator. After this incubation period the medium was discarded, the cells were washed with 100 µl of PBS and 100 µl of DMSO was added to each well to extract the dye. The plate was shaken at 240 rpm for 10 min and the absorbance was measured at 570 nm.
(§5) At least three independent experiments were conducted in triplicate for each cell line and toxicity endpoint. […] Control values were set as 100%. Differences between samples and the control were evaluated using the statistical analysis package SPSS 14.0. Statistically significant differences were set at p≤0.05.

[5] = system: SW620; experiment: MTT cytotoxicity assay, complex 7; assay type: cell-based; conditions: SW620 (Dukes' C) colon cancer line, 24 hr
Method: as §1, §2, §4, §5

[6] = system: pUC18; experiment: Nuclease activity: relaxation of supercoiled plasmid DNA, agarose gel; assay type: biochemical; conditions: 37 °C; for concentration at which nuclease activity is seen: supercoiled pUC18, 5 hours, no added H2O2, oxidant or reductant
Method: Nuclease Activity. Reactions were carried out in a total volume of 20 µL in 0.1 M cacodylate buffer (pH = 6.0) with either 0.5, 2.5, 10 µL of 40 µM complex or 2, 5, 10 µL of 200 µM of complex, which were initially prepared in DMF, then diluted in cacodylate buffer (in which they dissolved), with 1 µL of 0.25 µg/µL pUC18 in cacodylate buffer. The resulting mixtures contained 1, 5, 10, 20, 50 and 100 µM of complex and […] of pUC18. Samples were incubated for 5 hr at 37°C. Quench buffer (3 µL; 0.25% bromophenolblue, 0.25% xylene cyanole and 30% glycerol) was then added and samples were loaded onto agarose gel (0.8%) containing 1.5 µL/100 mL of solution of GelRed™ (10,000X). Electrophoresis was completed at 80 V for 2 hr in 1XTAE buffer.

[7] = Solubility in organic solvents; conditions: DMSO/DMF
[8] = system: four Human-derived tumor lines; experiment: MTT assay, summary statements over the four tumor lines; assay type: cell-based; conditions: MCF-7, DU145, SK-OV-3, HT29, 24 hours
Method: (§6) Human colon cancer cell line, HT29 (passage 17 to 30, ATCC, USA), was grown in McCoys's 5a medium supplemented with 2mM L-glutamine and fetal bovine serum (FBS) 10% and containing 100U/ ml penicillin and 100µg / ml streptomycin at 37°C in a humidified atmosphere with 5% CO2 Human Breast Cancer cell line, MCF-7 (passage 16 to 26, ATCC, USA) was grown in Eagle's minimum essential medium containing 2mM L-glutamine, 100U/ ml penicillin,100µg/ ml streptomycin, FBS (10%), 1mM sodium pyruvate and 1% (v/v) non essential amino acids at 37°C in a humidified atmosphere with 5% CO2 Human prostate cancer cell line, DU145 (passage 12 to 29, ATCC, USA) was grown in Eagle's minimum essential medium containing 2mM L-glutamine, 100U/ ml penicillin, 100µg/ ml streptomycin, FBS (10%), 1mM sodium pyruvate and 1% (v/v) non essential amino acids at 37°C in a humidified atmosphere with 5% CO2. All drugs were tested by MTT assay following 24-hour exposure of cells to each compound. Each value represents the mean IC50 of three independent experiments +/- standard error.
MTT Assay. This method is based on the reduction of the tetrazolium salt, methylthiazolyldiphenyl-tetrazolium bromide (MTT) into a crystalline blue formazan product by the cellular oxidoreductases of viable cells. […] The plates were then shaken for 2 min and the absorbance was read at 550 nm in a Varioscan plate reader. […]

[9] = system: HT29; experiment: MTT cytotoxicity assay, complexes 1-6; assay type: cell-based, Human; conditions: HT29 colon cancer, 24 hr exposure, mean of three independent experiments +/- standard error
Method: as §6
(§7) MTT Assay. This method is based on the reduction of the tetrazolium salt, methylthiazolyldiphenyl-tetrazolium bromide (MTT) into a crystalline blue formazan product by the cellular oxidoreductases of viable cells. The resultant formazan crystal formation is proportional to the number of viable cells. Cells were seeded at 4x 10^5 cells/ml in 96-well plates and incubated at 37°C in 5% CO2 for 24 hours. Cells were treated with a four log range of concentration of the test compounds in triplicate from 0.1 to 500 µM or with a solvent control (0.5% DMSO) in complete medium. Following 24 h incubation, cells were incubated with 20 µl of MTT (5 mg/ml) in 0.1 M PBS, pH 7.4 at 37 °C in a humid atmosphere with 5% CO2 for 4 h. Media was then gently aspirated from test cultures and 100 µL of dimethyl sulphoxide (DMSO) was added to all wells. The plates were then shaken for 2 min and the absorbance was read at 550 nm in a Varioscan plate reader. The IC50 was defined as the concentration of test compound required to reduce the absorbance of the MTT-formazan crystals by 50%, indicating 50% cell deactivation.

[10] = system: MCF-7; experiment: MTT cytotoxicity assay, complexes 1-6; assay type: cell-based, Human; conditions: MCF-7 breast cancer, 24 hr exposure, mean of three independent experiments +/- standard error
Method: as §6, §7

[11] = system: DU145; experiment: MTT cytotoxicity assay, complexes 1-6; assay type: cell-based, Human; conditions: DU145 prostate cancer, 24 hr exposure, mean of three independent experiments +/- standard error
Method: as §6, §7

[12] = system: SK-OV-3; experiment: MTT cytotoxicity assay, complexes 1-6; assay type: cell-based, Human; conditions: SK-OV-3 ovarian cancer, 24 hr exposure, mean of three independent experiments +/- standard error
Method: as §7
Cu(II) bis-phen complexes 4-6 display rapid, low micomolar toxicities against all tumor lines. […] It should be noted that 6 is dinuclear and so contains two active copper units, which may explain this heightened potency.

[13] = system: poly[d(G-C)]2; experiment: DNA-ethidium fluorescence quenching; assay type: binding; conditions: Q = equivalent concentration required to reduce fluorescence by 50%; 2.0 µM EtBr, 20 µM DNAp, 2 mM NaOAc buffer, 9.3 mM NaCl, pH 5.0
Method: as §3

[14] = system: poly[d(A-T)]2; experiment: DNA-ethidium fluorescence quenching; assay type: binding; conditions: Q = equivalent concentration required to reduce fluorescence by 50%; 2.0 µM EtBr, 20 µM DNAp, 2 mM NaOAc buffer, 9.3 mM NaCl, pH 5.0
Method: as §3

Row | Substance | Kapp (apparent binding constant) [1] | DNA binding ability, in words ([1]; competitive EtBr displacement with CT-DNA) | IC50 [1] | Activity LD50 [2] | IC50 [3] | Activity LD50 [4] | Activity LD50 [5] | 'self-activating' nuclease activity (relaxation of SC pUC18), in words ([6]; 1-100 µM complex, 5 hours, no added H2O2 or reductant) | concentration at which nuclease activity is seen [6] | Solubility [7] | cytotoxicity against all tumor lines, in words [8] | IC50 [9] | IC50 [10] | IC50 [11] | IC50 [12] | IC50 [13] | IC50 [14]
1 | [Cu2(oda)(phen)4](ClO4)2.2.67H2O.C2H5OH [Complex 7] | 2.55x10^5 M(bp)^-1 | efficient ability to bind with calf thymus DNA | 46.9 µM | 9.61 µM | 22.6 µM | 11.3 µM | 31 µM | highly efficient in the cleavage of plasmid DNA | ≥ 10 µM |  |  |  |  |  |  |  | 
2 | [{Cu{(phen)2}2(terph)](terph)10H2O.3EtOH [Complex 6] | 3.04x10^5 M(bp)^-1 |  | 39.4 µM |  |  |  |  |  | 1 to 5 µM | forms only suspensions in DMSO/DMF | best broad-spectrum activity | 5.4 ± 0.3 µM | 7.9 ± 0.4 µM | 5.7 ± 0.2 µM | 6.7 ± 0.4 µM | 10.3 µM | 8.55 µM

Reference: patent EP2407164A1, “Copper II complexes of phenanthroline and their use in cancer treatment” (Dublin Institute of Technology Intellectual Property Ltd, priority 2010, dated 2012)
